Tested on: Enterobacter cloacae (ECL) isolates
Assay: MIC of compounds alone and combined with antibacterials, broth microdilution (CLSI)
Format: cell-based
How it was run: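 Broth microdilution in cation-adjusted Mueller-Hinton broth, inoculum 5.10^5 CFU/mL, 16-20 h at 35° C in ambient air, on genotyped isolates. Compound MIC, alone or with an antibacterial, taken visually as lowest concentration preventing growth; antibacterial MIC determined at each compound concentration.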

## C=CC1=C(C(=O)O)N2C(=O)[C@@H](NC(=O)/C(=N\OCC(=O)O)c3csc(N)n3)[C@H]2SC1 [FIX, Cefixime]
ECL UFR14, AF3 @ 8 μg/mL
  MIC ATB in combination: 32 µg/mL
ECL UFR14, CLA @ 4 μg/mL
  MIC ATB in combination: >128 µg/mL
ECL UFR38, AF2 @ 8 μg/mL
  MIC ATB in combination: <0.25 µg/mL
ECL UFR38, AF3 @ 8 μg/mL
  MIC ATB in combination: >128 µg/mL
ECL UFR38, CLA @ 4 μg/mL
  MIC ATB in combination: >128 µg/mL
ECL UFR51, AF2 @ 8 μg/mL
  MIC ATB in combination: <0.25 µg/mL
ECL UFR51, AF3 @ 8 μg/mL
  MIC ATB in combination: <0.25 µg/mL
ECL UFR51, CLA @ 4 μg/mL
  MIC ATB in combination: >128 µg/mL
ECL UFR60, AF2 @ 8 μg/mL
  MIC ATB in combination: 128 µg/mL
ECL UFR60, AF3 @ 8 μg/mL
  MIC ATB in combination: 8 µg/mL
ECL UFR60, CLA @ 4 μg/mL
  MIC ATB in combination: 128 µg/mL
ECL UFR70, AF2 @ 8 μg/mL
  MIC ATB in combination: <=0.25 μg/mL
ECL UFR70, AF3 @ 8 μg/mL
  MIC ATB in combination: <0.25 µg/mL
ECL UFR70, CLA @ 4 μg/mL
  MIC ATB in combination: >128 µg/mL
ECL UFR84, AF2 @ 8 μg/mL
  MIC ATB in combination: >128 µg/mL
ECL UFR84, AF3 @ 8 μg/mL
  MIC ATB in combination: 64 µg/mL
ECL UFR84, CLA @ 4 μg/mL
  MIC ATB in combination: >128 µg/mL
ECL UFR85, AF2 @ 8 μg/mL
  MIC ATB in combination: <0.25 µg/mL
ECL UFR85, AF3 @ 8 μg/mL
  MIC ATB in combination: 1 µg/mL
ECL UFR85, CLA @ 4 μg/mL
  MIC ATB in combination: >128 µg/mL
ECL UFR200, AF2 @ 8 μg/mL
  MIC ATB in combination: 1 µg/mL
ECL UFR200, AF3 @ 8 μg/mL
  MIC ATB in combination: 0.5 µg/mL
ECL UFR200, CLA @ 4 μg/mL
  MIC ATB in combination: 16 µg/mL
Strain ECL 2185D, genotype OXA-163
  MIC: >128 µg/mL
Strain ECL 190310, genotype AmpC
  MIC: >128 µg/mL
Strain ECL 190408, genotype TEM-1, CTX-M-15, OXA-1
  MIC: 512 µg/mL
Strain ECL 200138, genotype AmpC
  MIC: >128 µg/mL
Strain ECL 200322, genotype TEM-1, CTX-M-15, OXA-1
  MIC: >128 µg/mL
Strain ECL 260033, genotype AmpC
  MIC: >128 µg/mL
Strain ECL 260253, genotype TEM-1, KPC-3
  MIC: >128 µg/mL
Strain ECL 260323, genotype AmpC
  MIC: >128 µg/mL
Strain ECL 260508, genotype TEM-1, CTX-M-15
  MIC: >128 µg/mL
Strain ECL HAN, genotype OXA-35
  MIC: >128 µg/mL
Strain ECL NEM146383, genotype AmpC
  MIC: >128 µg/mL
Strain ECL P99, genotype AmpC
  MIC: >128 µg/mL
Strain ECL UFR12, genotype CTX-M-9, OXA-48
  MIC: 16 µg/mL
Strain ECL UFR13, genotype TEM-1, SHV-12, CTX-M-9, OXA-48
  MIC: >128 µg/mL
Strain ECL UFR14, genotype TEM-1, SHV-12, CTX-M-15, DHA-1, OXA-1, OXA-48
  MIC: >128 µg/mL
Strain ECL UFR38, genotype CTX-M-15, NDM-1
  MIC: >128 µg/mL
Strain ECL UFR51, genotype SHV-12, IMP-8
  MIC: >128 µg/mL
Strain ECL UFR60, genotype TEM-1, CTX-M-15, KPC-2
  MIC: >128 µg/mL
Strain ECL UFR70, genotype TEM-1, CTX-M-15, CMY-2, OXA-1, Porin loss
  MIC: >128 µg/mL
Strain ECL UFR84, genotype TEM-1, AmpC, OXA-1
  MIC: >128 µg/mL
Strain ECL UFR85, genotype TEM-1, CTX-M-15, AmpC
  MIC: >128 µg/mL
Strain ECL UFR192, genotype TEM-1, NDM-1, antibiotic alone
  MIC: >128 µg/mL
Strain ECL UFR192, with AF2 @ 8 μg/mL
  MIC ATB in combination: >128 µg/mL
Strain ECL UFR192, with AF3 @ 8 μg/mL
  MIC ATB in combination: >128 µg/mL
Strain ECL UFR192, with CLA @ 4 μg/mL
  MIC ATB in combination: >128 µg/mL
Strain ECL UFR193, genotype TEM-1, CTX-M-15, OXA-1, NDM-1, RmtC, antibiotic alone
  MIC: >128 µg/mL
Strain ECL UFR193, with AF2 @ 8 μg/mL
  MIC ATB in combination: >128 µg/mL
Strain ECL UFR193, with AF3 @ 8 μg/mL
  MIC ATB in combination: <=0.25 μg/mL
Strain ECL UFR193, with CLA @ 4 μg/mL
  MIC ATB in combination: >128 µg/mL
Strain ECL UFR194, genotype OXA-48
  MIC: 4 µg/mL
Strain ECL UFR194, with AF2 @ 8 μg/mL
  MIC ATB in combination: <=0.25 μg/mL
Strain ECL UFR194, with AF3 @ 8 μg/mL
  MIC ATB in combination: <=0.25 μg/mL
Strain ECL UFR194, with CLA @ 4 μg/mL
  MIC ATB in combination: 8 µg/mL
Strain ECL UFR195, genotype TEM-1, CTX-M-15, OXA-1, OXA-48
  MIC: >128 µg/mL
Strain ECL UFR195, with AF2 @ 8 μg/mL
  MIC ATB in combination: 8 µg/mL
Strain ECL UFR195, with AF3 @ 8 μg/mL
  MIC ATB in combination: 0.5 µg/mL
Strain ECL UFR195, with CLA @ 4 μg/mL
  MIC ATB in combination: >128 µg/mL
Strain ECL UFR196, genotype TEM-1, CTX-M-15, OXA-1, OXA-48
  MIC: >128 µg/mL
Strain ECL UFR196, with AF2 @ 8 μg/mL
  MIC ATB in combination: 8 µg/mL
Strain ECL UFR196, with AF3 @ 8 μg/mL
  MIC ATB in combination: 2 µg/mL
Strain ECL UFR196, with CLA @ 4 μg/mL
  MIC ATB in combination: >128 µg/mL

Reference: patent US20200017495A1, “NOVEL HETEROCYCLIC COMPOUNDS AND THEIR USE IN PREVENTING OR TREATING BACTERIAL INFECTIONS” (priority 2017, published 2020)
